Data reported in the SangsterLogP compilation.

Experiment: method code SF-AS, from DOI: 10.1002/zfch.19790190911

| SMILES | logP |
| --- | --- |
| CCc1nnc(N)o1 | -0.3 |
| CCCCCCCCCC(=O)NN | 0.03 |
| CC(C)C(=O)NN | -0.63 |
| CC(C)CC(=O)NN | -0.31 |
| CCCC(=O)NN | -0.62 |
| CCCCCCCCC(=O)NN | 0.5 |
| CCCCCC(=O)NN | 0.48 |
| CCCCCc1nnc(N)o1 | 1.1 |
| CCCCCCCC(=O)NN | 1 |
| Nc1nnc(CCc2ccccc2)o1 | 1.19 |
| CC(C)(C)C(=O)NN | -0.35 |
| Nc1nnc(Cc2ccccc2)o1 | 0.95 |
| CCC(C)c1nnc(N)o1 (stereo not drawn) | 0.62 |
| CC(C)(C)c1nnc(N)o1 | 0.48 |
| CCCCc1nnc(N)o1 | 0.65 |
| CCCCC(=O)NN | -0.11 |
| NNC=O | -2.05 |
| CCC(C)C(=O)NN (stereo not drawn) | -0.33 |
| CCC(=O)NN | -1 |

Next, values leading:

| logP | SMILES |
| --- | --- |
| 1.43 | CCCCCCc1nnc(N)o1 |
| 0.97 | CCCCCCC(=O)NN |
| 0.23 | CCCc1nnc(N)o1 |
| 0.4 | CC(C)Cc1nnc(N)o1 |
| 0.73 | CCCCCCCc1nnc(N)o1 |
| 0.2 | CC(C)c1nnc(N)o1 |
| -1.44 | Nc1nnco1 |
| -1.58 | CC(=O)NN |
| -0.92 | Cc1nnc(N)o1 |
